Laboratory results reported in patent US10369134B2, “Nonracemic mixtures and uses thereof” (Sunovion Pharmaceuticals Inc., priority 2017, dated 2019).

Tested on: freely moving rats
Experiment: Sleep study of (R)-amisulpride (EEG/EMG sleep architecture)
Format: in vivo, rat
Experimental: Rapid eye movement (REM) sleep time, non-rapid eye movement (NREM) sleep time, WAKE time were measured using electroencephalogram (EEG) and electromyogram (EMG) recordings. […] EEG and EMG recordings were made for 6 hr starting at the beginning of the light phase. Vehicle (0.05 N HCl/0.5% Methyl Cellulose 400 solution) or dosing suspensions were orally administered 10 min before the beginning of light phase. The volume of administration was 5 mL/kg. The order of drug treatment varied pseudo-randomly and at least 1 week was allowed between the experiments for individual animals.
A radio transmitter (TL11M2-F40-EET; Data Science International, New Brighton, Minn., USA) was implanted subcutaneously in the back of anesthetized animals, and a pair of electrode wires was stereotaxically implanted into the skull in the following locations: one in the frontoparietal (2 mm anterior to the bregma and 2 mm left to the midline), and the other in parietal (5 mm posterior to the bregma and 2 mm right to the midline) areas. The EEG electrodes were fixed using dental cement. Electromyograms (EMG) were recorded from the dorsal neck muscle. The animals, then, were allowed at least 1 week recovery in individual plastic cages before EEG/EMG recording. EEG/EMG were recorded in the home cages in a soundproof box using Dataquest A.R.T. software (Data Science International, New Brighton, Minn., USA) at a sampling rate of 500 Hz.
Sleep stage analysis was conducted off-line using Sleepsign software (KISSEI COMTEC CO., LTD, Nagano, Japan). Electrographic activity of 10-sec epochs were analyzed and each epoch was automatically assigned as WAKE, REM, and NREM based on the waveforms of EEG and EMG according to the following definitions: WAKE was defined as a condition in which EMG exceeded the individual threshold, NREM was defined as a condition in which the power of delta waves (0.5-4 Hz) exceeded the individual threshold with no EMG activity, and REM was defined as a condition in which the power of theta waves (4-8 Hz) exceeded 40% of the total power of frequencies between 0.5 and 80 Hz in the presence of no EMG activity. The duration of each REM, WAKE, and NREM periods were calculated by summing time spent in each condition during sleep every 2 hours.
All data are expressed as means±S.E.M. REM sleep, NREM sleep time, and WAKE time each of sequential 2-hr periods were compared statistically using a repeated measures two-way ANOVA, followed by post-hoc Dunnett tests.

CCN1CCC[C@@H]1CNC(=O)c1cc(S(=O)(=O)CC)c(N)cc1OC [(R)-amisulpride, R-4-Amino-N-[(1-ethyl-2-pyrrolidinyl)methyl]-5-(ethylsulfonyl)-2-methoxybenzamide]
REM sleep duration (rat, 100 mg/kg p.o., 0-2 hr and 2-4 hr periods after administration): significant reductions
NREM sleep time (rat, 10, 30, 100 mg/kg p.o.): no observed effect
WAKE time (rat, 10, 30, 100 mg/kg p.o.): no observed effect
REM sleep duration (rat, 10, 30, 100 mg/kg p.o., light phase): reduced REM sleep duration in dose-dependent manner
